# Measured values from patent publication US7138361B2, “Herbicidal heterocycles” (E. I. du Pont de Nemours and Company, priority 2000, dated 2006).
# Legend:
# Format in all cases: in vivo
# Nightshade = assay: Test C preemergence
# Text: (§1) Seeds of plant species selected from bermudagrass (Cynodon dactylon), Surinam grass (Brachiaria decumbens), cocklebur (Xanthium strumarium), corn (Zea mays), crabgrass (Digitaria sanguinalis), woolly cupgrass (Eriochloa villosa), giant foxtail (Setaria faberii), goosegrass (Eleusine indica), johnsongrass (Sorghum halepense), kochia (Kochia scoparia), lambsquarters (Chenopodium album), morningglory (Ipomoea hederacea), yellow nutsedge (Cyperus esculentus), pigweed (Amaranthus retroflexus), common ragweed (Ambrosia elatior), soybean (Glycine max) and velvetleaf (Abutilon theophrasti) were planted and treated preemergence with test chemicals formulated in a non-phytotoxic solvent mixture which included a surfactant.
# (§2) At the same time, plants selected from these crop and weed species and also winter barley (Hordeum vulgare), blackgrass (Alopecurus myosuroides), canary grass (Phalaris minor), chickweed (Stellaria media), downy brome (Bromus tectorum), green foxtail (Setaria viridis), Italian ryegrass (Lolium multiflorum), wheat (Triticum aestivum), wild oat (Avena fatua) and windgrass (Apera spica-venti) were treated with postemergence applications of some of the test chemicals formulated in the same manner. Plants ranged in height from 2 to 18 cm (1- to 4-leaf stage) for postemergence treatments. Plant species in the flooded paddy test consisted of rice (Oryza saliva), smallflower flatsedge (Cyperus difformis), duck salad (Heteranthera limosa) and barnyardgrass (Echinochloa crus-galli) grown to the 2-leaf stage for testing. Treated plants and controls were maintained in a greenhouse for 12 to 14 days, after which time all species were compared to controls and visually evaluated. Plant response ratings, summarized in Table C, are based on a scale of 0 to 100 where 0 is no effect and 100 is complete control. A dash (-) response means no test result.
# Sunflower = assay: Test C preemergence; conditions: Rate 62 g/ha; scale 0 to 100, 0 no effect, 100 complete control
# Text: as §1, §2
# [1] = tested on: Surinam grass (Brachiaria decumbens); assay: Test C preemergence
# Text: as §1, §2
# [2] = tested on: bermudagrass (Cynodon dactylon); assay: Test C preemergence
# Text: as §1, §2
# [3] = tested on: cocklebur (Xanthium strumarium); assay: Test C preemergence
# Text: as §1, §2
# corn (Zea mays) = assay: Test C preemergence
# Text: as §1, §2
# [4] = tested on: crabgrass (Digitaria sanguinalis); assay: Test C preemergence
# Text: as §1, §2
# [5] = tested on: giant foxtail (Setaria faberii); assay: Test C preemergence
# Text: as §1, §2
# [6] = tested on: goosegrass (Eleusine indica); assay: Test C preemergence
# Text: as §1, §2
# [7] = tested on: johnsongrass (Sorghum halepense); assay: Test C preemergence
# Text: as §1, §2
# kochia (Kochia scoparia) = assay: Test C preemergence
# Text: as §1, §2
# [8] = tested on: lambsquarters (Chenopodium album); assay: Test C preemergence
# Text: as §1, §2
# [9] = tested on: morningglory (Ipomoea hederacea); assay: Test C preemergence
# Text: as §1, §2
# [10] = tested on: pigweed (Amaranthus retroflexus); assay: Test C preemergence
# Text: as §1, §2
# soybean (Glycine max) = assay: Test C preemergence
# Text: as §1, §2
# [11] = tested on: velvetleaf (Abutilon theophrasti); assay: Test C preemergence
# Text: as §1, §2
# [12] = tested on: woolly cupgrass (Eriochloa villosa); assay: Test C preemergence
# Text: as §1, §2
# [13] = tested on: yellow nutsedge (Cyperus esculentus); assay: Test C preemergence
# Text: as §1, §2
# [14] = tested on: barnyardgrass (Echinochloa crus-galli); assay: Test C flooded paddy test; conditions: for Barnyardgrass plant response rating: Flooded Paddy, scale 0 to 100, 0 no effect, 100 complete control; for Plant response rating, Barnyardgrass: flooded paddy test, scale 0 to 100 (0 no effect, 100 complete control)
# Summary of the method: (§3)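 2-leaf-stage plants, flooded paddy; treated; greenhouse 12–14 days; compared with controls by eye; rated 0–100 (0 none, 100 complete control).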
# [15] = tested on: duck salad (Heteranthera limosa); assay: Test C flooded paddy test; conditions: for Ducksalad plant response rating: Flooded Paddy, scale 0 to 100, 0 no effect, 100 complete control; for Plant response rating, Ducksalad: flooded paddy test, scale 0 to 100 (0 no effect, 100 complete control)
# Summary of the method: as §3
# [16] = tested on: smallflower flatsedge (Cyperus difformis); assay: Test C flooded paddy test; conditions: for Flatsedge plant response rating: Flooded Paddy, scale 0 to 100, 0 no effect, 100 complete control; for Plant response rating, Flatsedge: flooded paddy test, scale 0 to 100 (0 no effect, 100 complete control)
# Summary of the method: as §3
# [17] = Rate 62 g/ha, scale 0 to 100, 0 no effect, 100 complete control
# [18] = Rate 125 g/ha, scale 0 to 100, 0 no effect, 100 complete control
# [19] = preemergence, Rate 31 g/ha, scale 0 to 100
# [20] = preemergence, Rate 250 g/ha, visual evaluation after 12 to 14 days
# [21] = preemergence, Rate 125 g/ha, scale 0 to 100, 0 no effect, 100 complete control
compound,measurement,setting,value
CC(C)c1ccn(C2OCN(c3cccc(C(F)(F)F)c3)C2=O)n1 (stereo not drawn) [Compound 27],"Plant response rating, Nightshade","Nightshade; Rate 31 g/ha, scale 0 to 100",0
same,"Plant response rating, Nightshade",Nightshade; [17],0
same,"Plant response rating, Nightshade",Nightshade; [18],0
same,"Plant response rating, Sunflower",Sunflower,20
same,"Plant response rating, Surinam grass",[1]; [17],50
same,"Plant response rating, Surinam grass",[1]; [19],0
same,"Plant response rating (0 to 100), Surinam grass",[1]; [20],80
same,"Plant response rating, Surinam grass",[1]; [21],50
same,"Plant response rating, Bermudagrass",[2]; [17],90
same,"Plant response rating, Bermudagrass",[2]; [19],30
same,"Plant response rating (0 to 100 where 0 is no effect and 100 is complete control), Bermudagrass",[2]; [20],100
same,"Plant response rating, Bermudagrass",[2]; [21],100
same,"Plant response rating, Cocklebur",[3]; [17],0
same,"Plant response rating, Cocklebur",[3]; [19],0
same,"Plant response rating (0 to 100), Cocklebur",[3]; [20],0
same,"Plant response rating, Cocklebur",[3]; [21],0
same,"Plant response rating, Corn",corn (Zea mays); [17],20
same,"Plant response rating, Corn",corn (Zea mays); [19],0
same,"Plant response rating (0 to 100), Corn",corn (Zea mays); [20],30
same,"Plant response rating, Corn",corn (Zea mays); [21],20
same,"Plant response rating, Crabgrass",[4]; [17],100
same,"Plant response rating, Crabgrass",[4]; [19],90
same,"Plant response rating (0 to 100), Crabgrass",[4]; [20],100
same,"Plant response rating, Crabgrass",[4]; [21],100
same,"Plant response rating, Foxtail, Giant",[5]; [17],70
same,"Plant response rating, Foxtail, Giant",[5]; [19],0
same,"Plant response rating (0 to 100), Foxtail, Giant",[5]; [20],0
same,"Plant response rating, Foxtail, Giant",[5]; [21],100
same,"Plant response rating, Goosegrass",[6]; [17],90
same,"Plant response rating, Goosegrass",[6]; [19],40
same,"Plant response rating (0 to 100), Goosegrass",[6]; [20],100
same,"Plant response rating, Goosegrass",[6]; [21],100
same,"Plant response rating, Johnsongrass",[7]; [17],20
same,"Plant response rating, Johnsongrass",[7]; [19],0
same,"Plant response rating (0 to 100), Johnsongrass",[7]; [20],50
same,"Plant response rating, Johnsongrass",[7]; [21],50
same,"Plant response rating, Kochia",kochia (Kochia scoparia); [17],100
same,"Plant response rating, Kochia",kochia (Kochia scoparia); [19],0
same,"Plant response rating (0 to 100), Kochia",kochia (Kochia scoparia); [20],100
same,"Plant response rating, Kochia",kochia (Kochia scoparia); [21],100
same,"Plant response rating, Lambsquarters",[8]; [17],100
same,"Plant response rating, Lambsquarters",[8]; [19],100
same,"Plant response rating (0 to 100), Lambsquarters",[8]; [20],100
same,"Plant response rating, Lambsquarters",[8]; [21],100
same,"Plant response rating, Morningglory",[9]; [17],20
same,"Plant response rating, Morningglory",[9]; [19],0
same,"Plant response rating (0 to 100), Morningglory",[9]; [20],30
same,"Plant response rating, Morningglory",[9]; [21],20
same,"Plant response rating, Pigweed",[10]; [17],0
same,"Plant response rating, Pigweed",[10]; [19],100
same,"Plant response rating (0 to 100), Pigweed",[10]; [20],100
same,"Plant response rating, Pigweed",[10]; [21],100
same,"Plant response rating, Soybean",soybean (Glycine max); [17],30
same,"Plant response rating, Soybean",soybean (Glycine max); [19],0
same,"Plant response rating (0 to 100), Soybean",soybean (Glycine max); [20],50
same,"Plant response rating, Soybean",soybean (Glycine max); [21],40
same,"Plant response rating, Velvetleaf",[11]; [17],0
same,"Plant response rating, Velvetleaf",[11]; [19],0
same,"Plant response rating (0 to 100), Velvetleaf",[11]; [20],0
same,"Plant response rating, Velvetleaf",[11]; [21],0
same,"Plant response rating, Cupgrass, Woolly",[12]; [17],50
same,"Plant response rating, Cupgrass, Woolly",[12]; [19],50
same,"Plant response rating (0 to 100), Cupgrass, Woolly",[12]; [20],100
same,"Plant response rating, Cupgrass, Woolly",[12]; [21],80
same,"Plant response rating, Nutsedge",[13]; [17],60
same,"Plant response rating, Nutsedge",[13]; [19],30
same,"Plant response rating (0 to 100), Nutsedge",[13]; [20],80
same,"Plant response rating, Nutsedge",[13]; [21],60
same,Barnyardgrass plant response rating,[14]; Rate 250 g/ha,60
same,Barnyardgrass plant response rating,[14]; Rate 500 g/ha,70
same,"Plant response rating, Barnyardgrass",[14]; Rate 62 g/ha,20
same,"Plant response rating, Barnyardgrass",[14]; Rate 125 g/ha,60
same,Ducksalad plant response rating,[15]; Rate 250 g/ha,0
same,Ducksalad plant response rating,[15]; Rate 500 g/ha,90
same,"Plant response rating, Ducksalad",[15]; Rate 62 g/ha,0
same,"Plant response rating, Ducksalad",[15]; Rate 125 g/ha,0
same,Flatsedge plant response rating,[16]; Rate 250 g/ha,100
same,Flatsedge plant response rating,[16]; Rate 500 g/ha,100
same,"Plant response rating, Flatsedge",[16]; Rate 62 g/ha,90
same,"Plant response rating, Flatsedge",[16]; Rate 125 g/ha,90
CCC(CC)c1ccn(C2SCN(c3cccc(C(F)(F)F)c3)C2=O)n1 (stereo not drawn) [Compound 21],"Plant response rating, Nightshade","Nightshade; Rate 31 g/ha, scale 0 to 100",80
same,"Plant response rating, Nightshade",Nightshade; [17],90
same,"Plant response rating, Nightshade",Nightshade; [18],100
same,"Plant response rating, Sunflower",Sunflower,60
same,"Plant response rating, Surinam grass",[1]; [17],0
same,"Plant response rating, Surinam grass",[1]; [19],0
same,"Plant response rating, Surinam grass",[1]; [21],30
same,"Plant response rating, Bermudagrass",[2]; [17],100
same,"Plant response rating, Bermudagrass",[2]; [19],60
same,"Plant response rating, Bermudagrass",[2]; [21],100
same,"Plant response rating, Cocklebur",[3]; [17],0
same,"Plant response rating, Cocklebur",[3]; [19],0
same,"Plant response rating, Cocklebur",[3]; [21],0
same,"Plant response rating, Corn",corn (Zea mays); [17],20
same,"Plant response rating, Corn",corn (Zea mays); [19],20
same,"Plant response rating, Corn",corn (Zea mays); [21],20
same,"Plant response rating, Crabgrass",[4]; [17],90
same,"Plant response rating, Crabgrass",[4]; [19],90
same,"Plant response rating, Crabgrass",[4]; [21],100
same,"Plant response rating, Foxtail, Giant",[5]; [17],80
same,"Plant response rating, Foxtail, Giant",[5]; [19],0
same,"Plant response rating, Foxtail, Giant",[5]; [21],90
same,"Plant response rating, Goosegrass",[6]; [17],80
same,"Plant response rating, Goosegrass",[6]; [19],80
same,"Plant response rating, Goosegrass",[6]; [21],100
same,"Plant response rating, Johnsongrass",[7]; [17],70
same,"Plant response rating, Johnsongrass",[7]; [19],30
same,"Plant response rating, Johnsongrass",[7]; [21],90
same,"Plant response rating, Kochia",kochia (Kochia scoparia); [17],90
same,"Plant response rating, Kochia",kochia (Kochia scoparia); [19],90
same,"Plant response rating, Kochia",kochia (Kochia scoparia); [21],90
same,"Plant response rating, Lambsquarters",[8]; [17],100
same,"Plant response rating, Lambsquarters",[8]; [19],90
same,"Plant response rating, Lambsquarters",[8]; [21],100
same,"Plant response rating, Morningglory",[9]; [17],20
same,"Plant response rating, Morningglory",[9]; [19],0
same,"Plant response rating, Morningglory",[9]; [21],20
same,"Plant response rating, Pigweed",[10]; [17],80
same,"Plant response rating, Pigweed",[10]; [19],30
same,"Plant response rating, Pigweed",[10]; [21],100
same,"Plant response rating, Soybean",soybean (Glycine max); [17],40
same,"Plant response rating, Soybean",soybean (Glycine max); [19],30
same,"Plant response rating, Soybean",soybean (Glycine max); [21],80
same,"Plant response rating, Velvetleaf",[11]; [17],0
same,"Plant response rating, Velvetleaf",[11]; [19],0
same,"Plant response rating, Velvetleaf",[11]; [21],0
same,"Plant response rating, Cupgrass, Woolly",[12]; [17],80
same,"Plant response rating, Cupgrass, Woolly",[12]; [19],40
same,"Plant response rating, Cupgrass, Woolly",[12]; [21],80
same,"Plant response rating, Nutsedge",[13]; [17],50
same,"Plant response rating, Nutsedge",[13]; [19],20
same,"Plant response rating, Nutsedge",[13]; [21],60
same,Barnyardgrass plant response rating,[14]; Rate 250 g/ha,50
same,Barnyardgrass plant response rating,[14]; Rate 500 g/ha,100
same,"Plant response rating, Barnyardgrass",[14]; Rate 62 g/ha,40
same,"Plant response rating, Barnyardgrass",[14]; Rate 125 g/ha,50
same,Ducksalad plant response rating,[15]; Rate 250 g/ha,90
same,Ducksalad plant response rating,[15]; Rate 500 g/ha,100
same,"Plant response rating, Ducksalad",[15]; Rate 62 g/ha,80
same,"Plant response rating, Ducksalad",[15]; Rate 125 g/ha,90
same,Flatsedge plant response rating,[16]; Rate 250 g/ha,90
same,Flatsedge plant response rating,[16]; Rate 500 g/ha,100
same,"Plant response rating, Flatsedge",[16]; Rate 62 g/ha,80
same,"Plant response rating, Flatsedge",[16]; Rate 125 g/ha,90
